In ChEMBL document CHEMBL1201862, “PubChem BioAssay data set” (2004):
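Assay format: 96-well plates, 48-hour exposure. GI50 is the concentration that inhibits growth by half.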 Activity calls are given as the source filed them. No stated cut-off is given here; in the data, active = GI50 up to about 1.1 µM and inactive = higher. Where a SMILES comes first, the peptide text is derived from it. The star is where a group is joined. Boc = CC(C)(C)OC(=O)*

How the values were obtained:
Assay in all cases: NCI-60 cell line screen, 48 h
CAKI-1 = tested on: CAKI-1
COLO 205 = tested on: COLO 205
DU-145 = tested on: DU-145
HCC 2998 = tested on: HCC 2998
Hs-578T = tested on: Hs-578T
K562 = tested on: K562
KM12 = tested on: KM12
M14 = tested on: M14
MDA-N = tested on: MDA-N
MOLT-4 = tested on: MOLT-4
NCI-H23 = tested on: NCI-H23
NCI/ADR-RES = tested on: NCI/ADR-RES
SF-295 = tested on: SF-295
SF-539 = tested on: SF-539
SK-MEL-2 = tested on: SK-MEL-2
SNB-19 = tested on: SNB-19
SNB-75 = tested on: SNB-75
TK-10 = tested on: TK-10
UACC-257 = tested on: UACC-257
A498 = tested on: A498

Measured: GI50

CC(C)c1c(O)ccc2c1CCC1C(C)(C)CCCC21C (stereo not drawn)
inactive: CAKI-1 16.3 µM | COLO 205 17.8 µM | DU-145 14.8 µM | HCC 2998 22 µM | Hs-578T 26.7 µM | K562 21.6 µM | KM12 20.5 µM | M14 16.2 µM | MDA-N 17.1 µM | MOLT-4 19.1 µM | NCI-H23 17.3 µM | NCI/ADR-RES 16.9 µM | SF-295 17.9 µM | SF-539 18.7 µM | SK-MEL-2 16.7 µM | SNB-19 18.2 µM | SNB-75 18.6 µM | TK-10 20.7 µM | UACC-257 17.7 µM

COC(=O)c1c(O)ccc2c1c1c(n2Cc2cc(OC)cc(OC)c2)C(=O)c2ccccc2C1
inactive: A498 92.3 µM | CAKI-1 21.1 µM | COLO 205 13.2 µM | DU-145 53.3 µM | Hs-578T 87.3 µM | K562 66.8 µM | KM12 43.3 µM | M14 37.8 µM | MDA-N 10.8 µM | MOLT-4 58.1 µM | NCI-H23 58.1 µM | NCI/ADR-RES 16.7 µM | SF-295 52.6 µM | SF-539 50.6 µM | SK-MEL-2 50.6 µM | SNB-19 > 100 µM | SNB-75 4.7 µM | TK-10 52 µM | UACC-257 67 µM

CCOC(=O)C(=[N+]=[N-])C(=O)CSC#N
inactive: A498 > 100 µM | CAKI-1 32.7 µM | COLO 205 > 100 µM | DU-145 > 100 µM | Hs-578T > 100 µM | KM12 > 100 µM | M14 23.8 µM | MDA-N 36 µM | MOLT-4 39.2 µM | NCI-H23 84.7 µM | NCI/ADR-RES 96.4 µM | SF-295 > 100 µM | SF-539 21.3 µM | SK-MEL-2 > 100 µM | SNB-19 97.5 µM | TK-10 94.8 µM | UACC-257 71.4 µM

CC(NC(=O)C1CCCN1C(=O)CNC(=O)OC(C)(C)C)C(=O)O (stereo not drawn) (Boc-Gly-Pro-Ala-OH; configuration not given here)
inactive: CAKI-1 > 100 µM | COLO 205 > 100 µM | DU-145 > 100 µM | HCC 2998 > 100 µM | Hs-578T > 100 µM | K562 > 100 µM | KM12 > 100 µM | M14 > 100 µM | MDA-N > 100 µM | MOLT-4 > 100 µM | NCI-H23 > 100 µM | NCI/ADR-RES > 100 µM | SF-295 > 100 µM | SF-539 > 100 µM | SK-MEL-2 > 100 µM | SNB-19 > 100 µM | SNB-75 > 100 µM | TK-10 > 100 µM | UACC-257 > 100 µM

COC(=O)C(Cc1ccc(OC)cc1O)NC(=O)OC(C)(C)C (stereo not drawn)
inactive: CAKI-1 > 100 µM | COLO 205 > 100 µM | DU-145 > 100 µM | HCC 2998 > 100 µM | Hs-578T > 100 µM | K562 > 100 µM | KM12 > 100 µM | M14 > 100 µM | MDA-N > 100 µM | MOLT-4 > 100 µM | NCI-H23 86.3 µM | NCI/ADR-RES > 100 µM | SF-295 > 100 µM | SF-539 > 100 µM | SK-MEL-2 > 100 µM | SNB-19 > 100 µM | SNB-75 > 100 µM | TK-10 > 100 µM | UACC-257 22.1 µM

CC(C)(C)c1cc(CC2C(=O)c3ccccc3C2=O)cc(C(C)(C)C)c1O
inactive: A498 13.3 µM | CAKI-1 3.22 µM | COLO 205 3.6 µM | DU-145 2.45 µM | Hs-578T 3.94 µM | K562 3.13 µM | KM12 3.51 µM | M14 2.69 µM | MDA-N 7.5 µM | MOLT-4 2.5 µM | NCI-H23 4.22 µM | NCI/ADR-RES 2.69 µM | SF-295 3.24 µM | SF-539 3.65 µM | SK-MEL-2 3.2 µM | SNB-19 2.94 µM | TK-10 5.57 µM | UACC-257 3.21 µM

O=C1CC2C(=O)C1C(C(=O)O)C2C(=O)O (stereo not drawn)
inactive: A498 > 100 µM | CAKI-1 > 100 µM | COLO 205 > 100 µM | DU-145 > 100 µM | Hs-578T > 100 µM | K562 > 100 µM | KM12 > 100 µM | M14 > 100 µM | MDA-N > 100 µM | MOLT-4 > 100 µM | NCI-H23 > 100 µM | NCI/ADR-RES > 100 µM | SF-295 > 100 µM | SF-539 > 100 µM | SK-MEL-2 > 100 µM | SNB-19 > 100 µM | TK-10 > 100 µM | UACC-257 > 100 µM

COC(=O)c1ccccc1CC1Cc2ccc3c(c2C1=O)CCC3 (stereo not drawn)
inactive: CAKI-1 55.1 µM | COLO 205 29.9 µM | DU-145 > 100 µM | HCC 2998 28.2 µM | Hs-578T 43.3 µM | K562 33.2 µM | KM12 64.9 µM | M14 39.5 µM | MDA-N 33.5 µM | MOLT-4 25.1 µM | NCI-H23 39.6 µM | NCI/ADR-RES 28.8 µM | SF-295 57.1 µM | SF-539 > 100 µM | SK-MEL-2 43.9 µM | SNB-19 > 100 µM | SNB-75 13.8 µM | TK-10 > 100 µM | UACC-257 32.4 µM
